Assay results taken from paper PMC4965148 (PLoS ONE, 2016).
“And” between values parts separate entries of the source, which are not always exact repeats. Equal values may be shown once. Read-outs that look alike come from different tables or passages of the source.

Key:
rat α4β2 nAChR = target: T1, rat α4β2 nAChR (Rattus norvegicus, UniProt P09483+P12390); test: Ca2+ flux (FLIPR) agonist/antagonist assay; format: cell-based; conditions: FLIPR antagonist mode, EC90 ACh
T1 construct: expressed in transfected cells; host or cells: HEK293 (made by Bristol-Myers Squibb)
T1 sequence (P09483 31-630): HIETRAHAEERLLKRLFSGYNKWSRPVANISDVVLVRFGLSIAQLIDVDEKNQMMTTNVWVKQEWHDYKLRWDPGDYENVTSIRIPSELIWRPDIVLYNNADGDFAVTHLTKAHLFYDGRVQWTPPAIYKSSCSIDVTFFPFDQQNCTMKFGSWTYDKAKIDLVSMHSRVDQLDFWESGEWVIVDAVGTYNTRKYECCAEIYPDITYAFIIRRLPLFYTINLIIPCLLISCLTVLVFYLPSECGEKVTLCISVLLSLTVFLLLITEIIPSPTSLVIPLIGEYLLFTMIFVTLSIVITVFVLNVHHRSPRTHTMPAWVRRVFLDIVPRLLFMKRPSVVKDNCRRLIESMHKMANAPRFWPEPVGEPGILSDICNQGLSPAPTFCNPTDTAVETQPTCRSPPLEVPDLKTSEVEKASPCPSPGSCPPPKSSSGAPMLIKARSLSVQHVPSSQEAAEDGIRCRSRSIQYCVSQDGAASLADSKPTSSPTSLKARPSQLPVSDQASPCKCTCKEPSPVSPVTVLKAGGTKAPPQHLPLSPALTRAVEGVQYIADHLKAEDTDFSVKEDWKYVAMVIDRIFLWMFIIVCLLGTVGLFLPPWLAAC
T1 sequence (P12390 25-500): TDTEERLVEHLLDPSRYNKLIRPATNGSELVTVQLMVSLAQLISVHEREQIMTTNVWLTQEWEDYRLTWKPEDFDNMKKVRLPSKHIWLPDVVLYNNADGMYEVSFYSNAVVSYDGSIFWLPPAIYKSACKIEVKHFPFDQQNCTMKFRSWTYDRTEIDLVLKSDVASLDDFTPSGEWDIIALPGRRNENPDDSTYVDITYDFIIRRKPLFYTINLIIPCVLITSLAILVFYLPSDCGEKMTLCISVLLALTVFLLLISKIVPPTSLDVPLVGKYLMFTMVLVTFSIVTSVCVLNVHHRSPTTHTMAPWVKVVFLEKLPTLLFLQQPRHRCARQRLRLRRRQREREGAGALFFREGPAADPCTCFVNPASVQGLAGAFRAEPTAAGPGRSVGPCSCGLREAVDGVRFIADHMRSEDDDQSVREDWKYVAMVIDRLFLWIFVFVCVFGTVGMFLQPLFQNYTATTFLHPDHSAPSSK

Histamine H2 = Histamine H2 (Homo sapiens, UniProt P25021); test: Selectivity panel, binding
Estrogen receptor alpha = Estrogen receptor alpha (Homo sapiens, UniProt P03372); test: Selectivity panel, binding
Chain of Estrogen receptor alpha (P03372 whole entry): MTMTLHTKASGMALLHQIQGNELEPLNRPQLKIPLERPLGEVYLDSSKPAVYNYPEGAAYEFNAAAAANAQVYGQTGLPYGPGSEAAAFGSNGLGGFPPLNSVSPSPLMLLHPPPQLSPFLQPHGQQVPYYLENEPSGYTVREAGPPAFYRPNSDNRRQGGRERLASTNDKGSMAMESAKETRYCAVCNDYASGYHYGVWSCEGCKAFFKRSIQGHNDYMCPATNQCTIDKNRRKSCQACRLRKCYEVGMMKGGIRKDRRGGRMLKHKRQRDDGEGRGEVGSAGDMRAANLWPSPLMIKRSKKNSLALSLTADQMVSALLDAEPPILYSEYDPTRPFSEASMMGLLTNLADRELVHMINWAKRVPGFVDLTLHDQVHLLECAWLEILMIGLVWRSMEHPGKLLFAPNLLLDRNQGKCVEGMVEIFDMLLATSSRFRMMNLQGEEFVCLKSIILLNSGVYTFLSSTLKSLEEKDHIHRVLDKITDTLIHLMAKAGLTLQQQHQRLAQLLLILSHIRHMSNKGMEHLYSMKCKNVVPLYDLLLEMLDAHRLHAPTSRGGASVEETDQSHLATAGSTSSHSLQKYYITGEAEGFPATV

Muscarinic M4 = Muscarinic M4 (Homo sapiens, UniProt P08173); test: Selectivity panel, binding; conditions: read-out: % inhibition @ 10 µM
Chain of Muscarinic M4 (P08173 whole entry): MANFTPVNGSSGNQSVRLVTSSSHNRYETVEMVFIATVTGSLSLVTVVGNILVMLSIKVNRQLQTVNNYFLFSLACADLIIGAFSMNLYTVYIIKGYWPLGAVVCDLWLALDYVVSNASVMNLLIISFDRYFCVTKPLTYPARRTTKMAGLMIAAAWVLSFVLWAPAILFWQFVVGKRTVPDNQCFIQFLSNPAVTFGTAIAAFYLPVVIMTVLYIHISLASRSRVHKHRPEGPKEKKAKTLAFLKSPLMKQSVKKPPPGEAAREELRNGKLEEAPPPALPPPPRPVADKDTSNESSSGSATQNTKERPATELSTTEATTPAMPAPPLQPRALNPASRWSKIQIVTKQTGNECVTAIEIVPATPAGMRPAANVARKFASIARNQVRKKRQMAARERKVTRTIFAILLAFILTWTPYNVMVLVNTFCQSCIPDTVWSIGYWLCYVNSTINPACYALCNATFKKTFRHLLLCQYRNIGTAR

Dopamine D1 = Dopamine D1 (Homo sapiens, UniProt P21728); test: Selectivity panel, binding
Chain of Dopamine D1 (P21728 whole entry): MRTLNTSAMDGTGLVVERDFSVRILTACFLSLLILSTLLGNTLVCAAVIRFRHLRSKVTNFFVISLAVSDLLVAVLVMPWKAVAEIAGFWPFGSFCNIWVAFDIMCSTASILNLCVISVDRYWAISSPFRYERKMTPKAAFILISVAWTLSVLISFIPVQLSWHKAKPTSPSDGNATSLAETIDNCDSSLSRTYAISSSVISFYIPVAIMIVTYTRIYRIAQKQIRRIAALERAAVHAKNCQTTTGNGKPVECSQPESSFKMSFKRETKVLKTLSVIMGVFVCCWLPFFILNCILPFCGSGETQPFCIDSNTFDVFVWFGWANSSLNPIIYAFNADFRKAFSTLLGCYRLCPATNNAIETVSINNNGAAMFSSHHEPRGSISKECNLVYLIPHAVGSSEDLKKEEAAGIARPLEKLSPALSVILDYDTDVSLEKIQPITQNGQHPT

HEK293/Human 5-HT3A = target: T2, HEK293/Human 5-HT3A (Homo sapiens, UniProt P46098); test: Ca2+ flux (FLIPR) 5-HT3A antagonist assay; format: cell-based
T2 construct: expressed in transfected cells; host or cells: HEK293 (made by Bristol-Myers Squibb)
T2 sequence (P46098 24-478): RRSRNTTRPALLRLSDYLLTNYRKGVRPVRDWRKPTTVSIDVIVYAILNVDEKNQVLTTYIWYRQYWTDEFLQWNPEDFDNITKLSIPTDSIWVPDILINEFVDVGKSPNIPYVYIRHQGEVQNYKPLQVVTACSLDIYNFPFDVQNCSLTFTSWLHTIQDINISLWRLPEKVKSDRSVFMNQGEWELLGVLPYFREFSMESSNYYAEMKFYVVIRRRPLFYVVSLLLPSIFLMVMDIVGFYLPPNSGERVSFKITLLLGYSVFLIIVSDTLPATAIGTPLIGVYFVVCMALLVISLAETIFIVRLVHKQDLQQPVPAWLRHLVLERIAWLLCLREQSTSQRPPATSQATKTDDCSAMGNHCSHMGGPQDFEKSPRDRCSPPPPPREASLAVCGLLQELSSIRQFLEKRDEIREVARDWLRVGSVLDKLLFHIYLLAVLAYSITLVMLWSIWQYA
Protocol: Functional activity was examined using Ca^2+-sensitive, dye-based, microfluorometric assays read on the FLIPR Tetra plate reader platform (Molecular Devices, CA, USA). Cells were plated in 384-well black, clear-bottomed Greiner poly-D-lysine coated plates at a density of ~25 K cells/well and incubated at 29°C for 48 h. Prior to assay, media contents were removed and cells incubated in assay buffer containing 5μM final Fluo-4 dye for 90 min. For nAChR assays, the dye-loading buffer was HBSS (#14175 Life Technologies) supplemented with 20 mM HEPES, 0.5 mM CaCl2, 1 mM MgCl2 and 10 μM atropine (final concentration). Test compounds were solubilized in DMSO and serially diluted in NUNC 384-well plates prior to addition of assay buffer (5.3 mM KCl + 140 mM NaCl + 20 mM Hepes + 25 mM CaCl2 + 1 mM MgCl2 + 10 μM atropine final concentration). Compounds diluted in assay buffer were added to the assay plate by the FLIPR and read for approximately 2 min. […] For 5-HT3A antagonist studies, the dye loading and compound diluent buffer was HBSS (#14025 Life Technologies) supplemented with 20 mM HEPES (final concentration) and the concentration of 5-HT used in the assay was 2 μM. Offline transformation of concentration response data was done using a 4 parameter logistic fit using a Bristol-Myers Squibb proprietary informatics software suite.

5-HT2B = 5-HT2B (Homo sapiens, UniProt P41595); test: Selectivity panel, functional; format: cell-based
Chain of 5-HT2B (P41595 whole entry): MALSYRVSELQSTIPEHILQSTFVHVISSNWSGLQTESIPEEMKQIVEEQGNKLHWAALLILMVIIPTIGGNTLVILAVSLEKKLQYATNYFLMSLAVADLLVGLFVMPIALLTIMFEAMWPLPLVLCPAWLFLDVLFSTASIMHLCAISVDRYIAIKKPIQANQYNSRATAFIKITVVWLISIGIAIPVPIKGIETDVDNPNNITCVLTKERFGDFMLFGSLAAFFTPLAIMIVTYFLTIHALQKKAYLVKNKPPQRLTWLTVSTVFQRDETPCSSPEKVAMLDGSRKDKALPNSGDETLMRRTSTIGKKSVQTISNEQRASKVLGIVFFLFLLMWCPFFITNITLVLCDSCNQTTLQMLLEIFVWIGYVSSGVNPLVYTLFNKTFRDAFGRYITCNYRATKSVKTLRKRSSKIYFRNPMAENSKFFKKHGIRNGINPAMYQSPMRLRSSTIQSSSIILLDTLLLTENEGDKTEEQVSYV

PDE4 = test: Selectivity panel, enzyme; format: biochemical; conditions: Human
α7 nAChR = target: T3, α7 nAChR (Rattus norvegicus, UniProt Q05941); test: Ex vivo α7 nAChR occupancy ([3H]-A-585539); format: in vivo; conditions: for receptor occupancy at 10 mg/kg: rat
T3 construct: One forebrain hemisphere from each animal was thawed and homogenized in assay buffer; from tissue; host or cells: forebrain homogenate of dosed male Sprague Dawley rats
T3 sequence (Q05941 23-502): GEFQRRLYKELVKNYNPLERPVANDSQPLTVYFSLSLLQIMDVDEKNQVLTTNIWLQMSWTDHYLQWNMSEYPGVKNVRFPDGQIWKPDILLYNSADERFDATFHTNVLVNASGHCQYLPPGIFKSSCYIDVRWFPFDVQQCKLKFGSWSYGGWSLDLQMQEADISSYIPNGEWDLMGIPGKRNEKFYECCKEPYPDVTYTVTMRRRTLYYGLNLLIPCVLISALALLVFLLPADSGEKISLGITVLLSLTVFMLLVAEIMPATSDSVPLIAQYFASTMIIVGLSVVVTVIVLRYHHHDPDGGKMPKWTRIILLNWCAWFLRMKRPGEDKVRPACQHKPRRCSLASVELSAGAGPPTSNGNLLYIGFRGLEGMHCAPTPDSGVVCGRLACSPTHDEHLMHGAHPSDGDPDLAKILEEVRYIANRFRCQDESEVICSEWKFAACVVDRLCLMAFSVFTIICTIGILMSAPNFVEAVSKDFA

[1] = target: T4, HEK293/human α7 nAChR cells (Homo sapiens, UniProt P36544); test: Whole cell voltage clamp electrophysiology; format: cell-based; conditions: for Net Charge (Current Area) normalized to 300 µM ACh / Peak Current normalized to 3 mM ACh: individual cells
T4 construct: expressed in transfected cells
T4 sequence (P36544 23-502): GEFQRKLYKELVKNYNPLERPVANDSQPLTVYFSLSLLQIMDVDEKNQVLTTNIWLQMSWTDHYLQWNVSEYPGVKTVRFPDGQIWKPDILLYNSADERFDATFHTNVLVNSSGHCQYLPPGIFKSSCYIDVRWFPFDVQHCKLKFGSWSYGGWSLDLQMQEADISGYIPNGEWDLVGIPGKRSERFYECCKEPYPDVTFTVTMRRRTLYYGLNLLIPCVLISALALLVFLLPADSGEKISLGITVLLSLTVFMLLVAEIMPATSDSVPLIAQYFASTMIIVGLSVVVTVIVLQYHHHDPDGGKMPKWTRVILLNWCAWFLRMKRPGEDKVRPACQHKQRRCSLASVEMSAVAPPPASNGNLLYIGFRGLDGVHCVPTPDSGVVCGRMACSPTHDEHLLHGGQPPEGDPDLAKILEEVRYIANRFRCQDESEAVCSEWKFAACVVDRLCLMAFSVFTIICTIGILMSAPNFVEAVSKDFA
Protocol: Whole-cell voltage clamp studies were conducted on HEK293/rat α7 or HEK293/human α7 nAChR cells. […] Atropine (1 μM) was included in the bathing solution. […] Cells were voltage clamped at a holding potential of -90 mV. Using the Dynaflow microfluidic perfusion system (Cellectricon; flow 26 μl/min) responses to a 300 ms application of ACh or α7 nAChR agonists were measured. Currents were filtered at 2 kHz and sampled at 10 kHz using an EPC-9 amplifier and HEKA Pulse/Patchmaster software. […] The peak current amplitude and net charge crossing the membrane (i.e. the area under the current response curve) induced by agonist application were measured using Clampfit (pClamp Suite) and normalized to the maximal response induced by ACh (3 mM ACh for peak current amplitude and 300 μM ACh for net charge).

Opiate Kappa = Opiate Kappa (Homo sapiens, UniProt P41145); test: Selectivity panel, binding
Chain of Opiate Kappa (P41145 whole entry): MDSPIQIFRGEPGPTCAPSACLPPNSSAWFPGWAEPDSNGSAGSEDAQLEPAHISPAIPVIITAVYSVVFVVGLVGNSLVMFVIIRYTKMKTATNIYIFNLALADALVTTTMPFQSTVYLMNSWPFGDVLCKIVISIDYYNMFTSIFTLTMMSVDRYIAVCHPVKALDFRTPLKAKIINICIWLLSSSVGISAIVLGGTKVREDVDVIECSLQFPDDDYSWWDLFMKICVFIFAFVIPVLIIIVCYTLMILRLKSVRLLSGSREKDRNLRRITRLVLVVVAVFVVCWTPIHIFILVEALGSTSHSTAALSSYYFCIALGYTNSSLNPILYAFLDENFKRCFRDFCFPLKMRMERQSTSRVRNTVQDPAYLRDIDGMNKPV

5-HT1A = 5-HT1A (Homo sapiens, UniProt P08908); test: Selectivity panel, binding; conditions: read-out: % inhibition @ 10 µM
Chain of 5-HT1A (P08908 whole entry): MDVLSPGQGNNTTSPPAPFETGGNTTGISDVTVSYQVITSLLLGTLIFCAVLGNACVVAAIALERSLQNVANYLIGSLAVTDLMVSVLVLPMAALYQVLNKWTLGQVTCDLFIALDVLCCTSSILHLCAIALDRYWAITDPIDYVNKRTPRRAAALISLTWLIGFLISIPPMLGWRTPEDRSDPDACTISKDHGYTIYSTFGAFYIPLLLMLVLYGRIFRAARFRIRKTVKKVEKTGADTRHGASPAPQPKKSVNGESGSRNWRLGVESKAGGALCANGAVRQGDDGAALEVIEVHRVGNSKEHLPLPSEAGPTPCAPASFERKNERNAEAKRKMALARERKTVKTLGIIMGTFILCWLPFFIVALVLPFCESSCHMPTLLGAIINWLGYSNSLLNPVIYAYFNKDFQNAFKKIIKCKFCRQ

c1cn(-c2cc(NC3=NC[C@@]4(CN5CCC4CC5)O3)ncn2)cn1 [BMS-933043, (2R)-N-(6-(1H-imidazol-1-yl)-4-pyrimidinyl)-4'H-spiro[4-azabicyclo[2.2.2]octane-2,5'-[1,3]oxazol]-2'-amine] gave an IC50 (rat α4β2 nAChR) greater than 30 µM, an IC50 (Histamine H2) greater than 30 µM and an IC50 (Estrogen receptor alpha) greater than 150 µM. It also gave an inhibition at 10 µM (Muscarinic M4) of 10%, an IC50 (Dopamine D1) greater than 30 µM and an IC50 (HEK293/Human 5-HT3A; HEK293/Human 5-HT3A Mean ± SD IC50, Ca2+ flux (FLIPR), antagonism of 2 μM 5-HT) of 8.07 µM. The IC50 (HEK293/Human 5-HT3A; Human 5-HT3A IC50 values (individual), FLIPR, individual determinations) was 10.5 µM and 7.2 µM and 8.02 µM and 6.88 µM and 7.28 µM and 4.89 µM and 12.4 µM and 5.32 µM and 8.67 µM and 9.42 µM, the EC50 (5-HT2B) was greater than 10 µM and the IC50 (PDE4) was greater than 30 µM. The “% ex vivo α7 nAChR occupancy” value (α7 nAChR; 3 mg/kg po, 90 min, individual rats) was 65% and 63% and 62% and 28%, the “% ex vivo α7 nAChR occupancy” value (α7 nAChR; 10 mg/kg po, 90 min) was 83% and 78% and 77% and > 75% and the “% ex vivo α7 nAChR occupancy” value (α7 nAChR; 30 mg/kg po, 90 min, individual rats) was 82% and 90% and 67% and 69%. The receptor occupancy at 10 mg/kg (α7 nAChR; po, 10 mg/kg po, 90 min, read-out: % ex vivo α7 nAChR occupancy) was 80%, the receptor occupancy at 10 mg/kg (α7 nAChR; rats, 10 mg/kg sc to 30 mg/kg po, read-out: ex vivo α7 nAChR occupancy at doses associated with a loss of efficacy) was no less than 80% and the EC50 (α7 nAChR; rats, read-out: total plasma concentration achieving 50% ex vivo α7 nAChR occupancy) was 0.81 µM. For the same molecule, the EC50 [1] was 0.29 ± 0.01 µM, the “Net Charge (Current Area) normalized to 300 µM ACh” value ([1]; 0.1 µM) was 0.01982 and 0.01318 and 0.03866 and 0.03782 and 0.02283 and 0.01327 and 0.03856 and the “Peak Current normalized to 3 mM ACh” value ([1]; 0.1 µM) was 0.005961 and 0.006675 and 0.008382 and 0.007317 and 0.006875 and 0.005721 and 0.00606. The “Net Charge (Current Area) normalized to 300 µM ACh” value ([1]; 0.3 µM) was 0.3496 and 0.3624 and 0.3212 and 0.3215 and 0.2954 and 0.3576 and 0.4143, the “Peak Current normalized to 3 mM ACh” value ([1]; 0.3 µM) was 0.02637 and 0.02303 and 0.02389 and 0.02438 and 0.0295 and 0.03259 and 0.02737 and the “Net Charge (Current Area) normalized to 300 µM ACh” value ([1]; 1 µM) was 0.6952 and 0.6304 and 0.6554 and 0.6122 and 0.619 and 0.6592 and 0.8129. The “Peak Current normalized to 3 mM ACh” value ([1]; 1 µM) was 0.05479 and 0.03294 and 0.04392 and 0.05131 and 0.08504 and 0.08024 and 0.07272, the “Net Charge (Current Area) normalized to 300 µM ACh” value ([1]; 3 µM) was 0.7025 and 0.6903 and 0.6991 and 0.888 and 0.7947 and 0.7791 and 0.7655 and the “Peak Current normalized to 3 mM ACh” value ([1]; 3 µM) was 0.126 and 0.0997 and 0.1092 and 0.09913 and 0.1966 and 0.202 and 0.183. For the same molecule, the “Net Charge (Current Area) normalized to 300 µM ACh” value ([1]; 10 µM) was 0.8035 and 0.7537 and 0.7969 and 0.7637 and 0.7224 and 0.6788 and 0.8823, the “Peak Current normalized to 3 mM ACh” value ([1]; 10 µM) was 0.217 and 0.1532 and 0.1702 and 0.1779 and 0.3334 and 0.2987 and 0.3004 and the “Mean ± SEM Net Charge Ymax” value ([1]; Human, normalized to 300 μM ACh) was 0.78 ± 0.004. The “Mean ± SEM Peak Current Ymaxobs @ 10 μM” value ([1]; Human, normalized to 3 mM ACh) was 0.24 ± 0.03, the IC50 (Opiate Kappa) was greater than 30 µM and the inhibition at 10 µM (5-HT1A) was 9%.
